For data set [1], the system named is Ba/F3-FGFR1-transfected cells in the presence of 10 ng/ml murine IL3. The data set is described as follows: Ba/F3-FGFR1 (plus IL3) cellular proliferation counterscreen, Alamar Blue. Conditions: Mus musculus. It counts as cell-based. The essentials: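 Readout: resazurin reduction, RFU at ex 540 nm/em 590 nm, measured after 4 h with Alamar Blue. This follows 24 h compound treatment (DMSO dilutions) at 37 °C, 5% CO2 in phenol red-free RPMI-1640 plus 10% FBS, at 20000 or 10000 cells/well depending on format.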
Background: Counterscreens check selectivity or assay interference.

The target of data set [2] is T1, Ba/F3-Flt3-transfected cells (Homo sapiens, UniProt P36888, cells depend on it, form not given).
T1 sequence (P36888 1-993): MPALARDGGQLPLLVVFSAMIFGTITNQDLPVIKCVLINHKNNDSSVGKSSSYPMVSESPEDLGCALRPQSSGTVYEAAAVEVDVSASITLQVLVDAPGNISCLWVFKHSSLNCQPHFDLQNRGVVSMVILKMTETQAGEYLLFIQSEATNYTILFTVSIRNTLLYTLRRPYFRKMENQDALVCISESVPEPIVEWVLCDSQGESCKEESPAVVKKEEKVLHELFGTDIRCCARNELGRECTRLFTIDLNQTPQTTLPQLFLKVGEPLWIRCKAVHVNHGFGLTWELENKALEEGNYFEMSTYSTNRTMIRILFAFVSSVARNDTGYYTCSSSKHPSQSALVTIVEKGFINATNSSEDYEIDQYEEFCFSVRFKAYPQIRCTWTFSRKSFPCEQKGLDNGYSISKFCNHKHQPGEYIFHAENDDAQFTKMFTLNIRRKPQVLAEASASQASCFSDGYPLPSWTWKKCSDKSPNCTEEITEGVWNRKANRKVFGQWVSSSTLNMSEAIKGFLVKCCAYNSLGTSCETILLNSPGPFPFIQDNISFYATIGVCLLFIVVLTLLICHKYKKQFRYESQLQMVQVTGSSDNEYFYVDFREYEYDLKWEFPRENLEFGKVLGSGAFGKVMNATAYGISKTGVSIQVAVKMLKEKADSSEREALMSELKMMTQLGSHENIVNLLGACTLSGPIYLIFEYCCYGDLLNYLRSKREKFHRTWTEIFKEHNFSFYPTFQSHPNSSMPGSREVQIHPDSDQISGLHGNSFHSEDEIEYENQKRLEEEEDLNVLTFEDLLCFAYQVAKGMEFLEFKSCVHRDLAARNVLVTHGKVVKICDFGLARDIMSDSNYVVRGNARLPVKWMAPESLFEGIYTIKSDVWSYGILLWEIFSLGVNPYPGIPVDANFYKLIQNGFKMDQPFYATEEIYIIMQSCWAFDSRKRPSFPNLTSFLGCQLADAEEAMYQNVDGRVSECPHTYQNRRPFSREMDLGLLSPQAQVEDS
In words: Ba/F3-Flt3 (minus IL3) cellular proliferation assay, Alamar Blue. It counts as cell-based. To be noted: minus IL3. On the technique in general: The colour change of resazurin is a common sign of viable cells or microbes.

In data set [3] the target is KDR (h) (VEGFR2) (Homo sapiens, UniProt P35968). The data set is described as follows: KDR (VEGFR2) (enzymatic assay), TR-FRET. Type of data set: biochemical. The essentials: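 3 μM ATP, 500 nM Btn-Flt3 substrate, 150 ng/ml kinase; HEPES pH 7.5 with MnCl2, DTT, vanadate, Triton; 1% DMSO. 120 min RT. Stop: EDTA + Eu-anti-P-Tyr + SA-XL-665, 60 min RT. Readout TR-FRET ex340/em620, 655 nm, RFU.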
Background: Time-resolved FRET reads energy transfer from a long-lived donor to a nearby acceptor.

[4] abbreviates: plus IL3, 384 well, read-out: BAF3-FGFR 1 (PLUS IL3) 384 well pIC50 (converted).

These results are taken from patent US10052320B2, “Substituted quinoxalines as FGFR kinase inhibitors” (ASTEX THERAPEUTICS LIMITED, priority 2011, dated 2018).

Like-named read-outs stand apart in the source and are kept apart here.

Usually melting point stands for the temperature of the solid-liquid transition.

Sequence of KDR (h) (VEGFR2) (P35968 20-1356): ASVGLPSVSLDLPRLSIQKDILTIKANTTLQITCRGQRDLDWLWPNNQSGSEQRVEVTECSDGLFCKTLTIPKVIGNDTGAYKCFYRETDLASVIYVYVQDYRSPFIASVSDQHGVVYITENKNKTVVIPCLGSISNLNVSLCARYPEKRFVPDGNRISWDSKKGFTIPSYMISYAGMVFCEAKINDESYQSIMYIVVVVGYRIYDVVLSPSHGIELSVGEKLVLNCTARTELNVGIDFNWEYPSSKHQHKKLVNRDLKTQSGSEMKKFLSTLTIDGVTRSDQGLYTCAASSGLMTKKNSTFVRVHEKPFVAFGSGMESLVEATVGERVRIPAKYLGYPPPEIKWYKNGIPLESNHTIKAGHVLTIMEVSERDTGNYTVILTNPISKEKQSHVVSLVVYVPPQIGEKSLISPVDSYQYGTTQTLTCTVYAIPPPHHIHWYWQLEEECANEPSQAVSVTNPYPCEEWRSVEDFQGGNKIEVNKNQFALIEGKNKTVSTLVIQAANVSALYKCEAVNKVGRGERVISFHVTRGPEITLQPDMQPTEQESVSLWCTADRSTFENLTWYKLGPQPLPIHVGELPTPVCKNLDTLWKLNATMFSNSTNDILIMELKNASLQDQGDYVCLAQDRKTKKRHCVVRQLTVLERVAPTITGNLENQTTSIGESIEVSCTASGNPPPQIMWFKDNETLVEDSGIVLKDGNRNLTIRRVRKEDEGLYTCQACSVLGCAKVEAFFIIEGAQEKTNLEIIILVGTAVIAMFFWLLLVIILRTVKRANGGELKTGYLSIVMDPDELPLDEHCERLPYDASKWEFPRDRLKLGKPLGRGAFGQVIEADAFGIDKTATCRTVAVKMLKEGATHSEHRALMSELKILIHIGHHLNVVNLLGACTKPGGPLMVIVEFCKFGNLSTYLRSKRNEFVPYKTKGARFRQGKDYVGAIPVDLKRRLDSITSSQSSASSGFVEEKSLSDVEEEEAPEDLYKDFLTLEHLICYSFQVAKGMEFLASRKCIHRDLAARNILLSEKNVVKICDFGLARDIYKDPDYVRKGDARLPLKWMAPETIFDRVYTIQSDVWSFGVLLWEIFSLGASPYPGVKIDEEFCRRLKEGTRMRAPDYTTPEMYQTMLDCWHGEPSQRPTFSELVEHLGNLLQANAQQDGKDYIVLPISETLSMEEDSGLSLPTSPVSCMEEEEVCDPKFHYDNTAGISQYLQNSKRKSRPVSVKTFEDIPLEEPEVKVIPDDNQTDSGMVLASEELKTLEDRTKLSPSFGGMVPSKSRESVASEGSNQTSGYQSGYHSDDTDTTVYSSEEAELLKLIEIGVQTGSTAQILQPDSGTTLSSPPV

Consider `CNC(=O)OCCN(c1cc(OC)cc(OC)c1)c1ccc2ncc(-c3ccc(NC(=O)OC(C)(C)C)nc3)nc2c1` [Compound 80], for which the melting point was found to be 214 °C. Besides, in data set [1] (setting [4]), the IC50 is more than 10000 nM. Also, the “BAF3-FLT3 (MIN IL3) 384 well pIC50” value in data set [2] is on record as less than 5. Moreover, the IC50 in data set [3] was more than 1000 nM.

As for `COc1cc(OC)cc(N(CC2CC2)c2ccc3ncc(-c4nnnn4C)nc3c2)c1` [Compound 83], the melting point was 168 °C. Further, the IC50 in data set [1] (plus IL3, 96 well, read-out: BAF3-FGFR 1 (PLUS IL3) 96 well pIC50 (converted)) is more than 10000 nM. For the same compound, the IC50 in data set [1] (setting [4]) is more than 10000 nM. For the same compound, in data set [2], the “BAF3-FLT3 (MIN IL3) 96 well pIC50” value is less than 5 and the “BAF3-FLT3 (MIN IL3) 384 well pIC50” value is listed as less than 5. In data set [3], the IC50 was more than 1000 nM.

Compound `COc1cc(OC)cc(N(CC2CC2)c2ccc3ncc(-c4ocnc4C)nc3c2)c1` [Compound 104] showed a melting point of 141 °C. In addition, the IC50 in data set [1] (setting [4]) is more than 10000 nM. Moreover, the “BAF3-FLT3 (MIN IL3) 384 well pIC50” value in data set [2] was less than 5. In data set [3], this compound gave an IC50 of more than 1000 nM.

In turn, `COc1cc(OC)cc(N(CC2CO2)c2ccc3ncc(-c4ccc(N)nc4)nc3c2)c1` (centres unmarked) [Compound 110] displayed a melting point of 169 °C. Also, the IC50 in data set [1] (setting [4]) is more than 10000 nM. Besides, the “BAF3-FLT3 (MIN IL3) 384 well pIC50” value in data set [2] came out at 5.04. In data set [3], the IC50 was 275 nM.

Compound `COc1cc(OC)cc(N(CCO)c2ccc3ncc(-c4ccc(OC)nc4)nc3c2)c1` [Compound 111] had a melting point of 195 °C. The IC50 in data set [1] (setting [4]) is more than 10000 nM. In data set [2], the “BAF3-FLT3 (MIN IL3) 384 well pIC50” value is recorded as less than 5. In data set [3], this compound showed an IC50 of 741 nM.

The compound `CNc1ccc(-c2cnc3ccc(N(CCCO)c4cc(OC)cc(OC)c4)cc3n2)cn1` [Compound 116] registered a melting point of 188 °C. For the same compound, the IC50 in data set [1] (setting [4]) was more than 10000 nM. Also, in data set [2], the “BAF3-FLT3 (MIN IL3) 384 well pIC50” value is recorded as less than 5. The IC50 in data set [3] was 135 nM.

As to `COc1cc(OC)cc(N(CCO)c2ccc3ncc(-c4ccccc4)nc3c2)c1` [Compound 120], the melting point came to 124 °C. Further, in data set [1] (setting [4]), the IC50 was more than 10000 nM. Moreover, the “BAF3-FLT3 (MIN IL3) 384 well pIC50” value in data set [2] is less than 5. This compound also had an IC50 in data set [3] of 263 nM.

As for `COc1cc(OC)cc(N(CCO)c2ccc3ncc(-c4ccnc(C(=O)NCCCN)c4)nc3c2)c1` [Compound 123], the melting point is 103 °C. Also, the IC50 in data set [1] (setting [4]) is more than 10000 nM. Moreover, the “BAF3-FLT3 (MIN IL3) 384 well pIC50” value in data set [2] is reported as less than 5. Further, the IC50 in data set [3] is 575 nM.

`COc1cc(OC)cc(N(CCCO)c2ccc3ncc(-c4ccnc(NC(=O)OC(C)(C)C)c4)nc3c2)c1` [Compound 128] gave a melting point of 213 °C. Also, the IC50 in data set [1] (setting [4]) is more than 10000 nM. In addition, the “BAF3-FLT3 (MIN IL3) 384 well pIC50” value in data set [2] was less than 5. Also, in data set [3], the IC50 was more than 1000 nM.
